Measured values reported in patent publication US20210345611A1, “EXTENDED AND CONTINUOUS RELEASE COMPOSITIONS FOR PLANT HEALTH AND METHOD OF USE” (Verdesian Life Sciences U.S., LLC, priority 2018, published 2021).

Test: PGA stability in 250 mM sodium phosphate aqueous buffers (HPLC)
Type: physicochemical
Experimental: Analytical note: PGA measurements in this section are done on a free acid basis using HPLC techniques, with PGA peak in each analysis checked for purity using UV-Vis spectroscopy technique by comparison with a known standard reference material. Experiments were conducted to determine the relative stability of PGA to degradation in 250 mM sodium phosphate aqueous buffers at pH levels of interest representing pH levels commonly found in soils. PGA is sufficiently stable at the pH levels of interest. PGA/pH 5.75 L-Pyroglutamic acid was dissolved to a concentration of about 1.0% in 250 mM sodium phosphate aqueous buffer at pH of 5.75, and stored for 24 hours at 50 degrees C. […] PGA/pH 6.75 L-Pyroglutamic acid was dissolved to a concentration of about 1.0% in 250 mM sodium phosphate aqueous buffer at pH of 6.75, and stored for 24 hours at 50 degrees C. […] PGA/pH 7.75 L-Pyroglutamic acid was dissolved to a concentration of about 1.0% in 250 mM sodium phosphate aqueous buffer at pH of 7.75, and stored for 24 hours at 50 degrees C.

decomposition by HPLC analysis (about 1.0% in 250 mM sodium phosphate buffer pH 5.75, 24 hours at 50 degrees C): No detectable decomposition
decomposition by HPLC analysis (about 1.0% in 250 mM sodium phosphate buffer pH 6.75, 24 hours at 50 degrees C): No detectable decomposition
decomposition by HPLC analysis (about 1.0% in 250 mM sodium phosphate buffer pH 7.75, 24 hours at 50 degrees C): No detectable decomposition
Compound: O=C1CC[C@@H](C(=O)O)N1 [L-Pyroglutamic acid]
